This is an account of results in patent publication US20240425555A1, “MUTANT BRD4 POLYPEPTIDES AND METHODS OF USE THEREOF” (Northwestern University, priority 2023, published 2024).

Experiment [1] concerns Ser2P. The experiment can be described thus: Ser2P ChIP-seq upon JQ1 or dBET6 treatment. Format: cell-based, human. The conditions noted are these: BRD4-IAA7 cells; series concentration of JQ1 or 250 nM dBET6, 3 h. Here is the method:
(§1) FIGS. 5A-5J collectively illustrate the identification of a distinct BRD4-PTEFb population, which is active but not histone acetylation-bound. FIG. 5A illustrates the track examples for AID ChIP-seq in the BRD4-AID line and CCNT1 ChIP-seq in the BRD4-IAA7 line with/without auxin treatment (3 h). H3K27ac ChIP-seq signal in the BRD4-AID line is shown for comparison. FIG. 5B illustrates the heatmap showing the genome-wide BRD4 and CCNT1 occupancy profile and the corresponding fold change upon auxin treatment for the conditions in A. Genes ranked by BRD4 signal in control. FIG. 5C illustrates the scatter plot showing the relative promoter density of CCNT1 vs BRD4, calculated by the log 2RPKM of the ChIP-seq signals at the regions flanking (±1 Kb) the Pol II pausing sites. FIG. 5D illustrates the track examples for GFP ChIP-seq signal upon induction of GFP-tagged BRD4-FL or the indicated mutants (left). Heatmap showing the genome-wide fold changes of the GFP-tagged BRD4 mutants relative to the vector (right). The endogenous BRD4 was depleted by auxin treatment (3 h) in all samples. Genes are ranked by GFP signal in the GFP-BRD4-FL condition. FIG. 5E illustrates the track examples for CCNT1 ChIP-seq signal upon endogenous BRD4 depletion and rescue with indicated GFP-tagged mutants (left). Heatmap showing the genome-wide CCNT1 fold changes (right). […]

In experiment [2] the test system is Pol II pausing. The conditions noted are these: reference 21; cited from earlier work.
For experiment [3], the system named is Pol II pausing. The experiment is described as follows: total Pol II ChIP-seq upon auxin, JQ1, dBET6 or NVP-2 treatment. Format: cell-based, human. The conditions noted are these: BRD4-IAA7 cells; for Pol II pausing (Pol II occupancy profile): auxin 500 uM, JQ1 1 uM, dBET6 250 nM, 3 h; for gene-by-gene log 2PRR correlation with auxin treatment: scatter plot. An excerpt:
FIG. 1A illustrates the updated BRD4-IAA7 degron line. The F-box protein AtAFB2 was integrated into the C terminus of the BRD4 locus under the control of an independent promoter. […] These treatment concentrations/durations are relevant to all of FIG. 1. […] The gene list (N=6481) in this analysis is used throughout the study (except for FIGS. 3H-J). FIG. 1D illustrates the estimated Cumulative Density Function (ECDF) of pause release ratios (PRR, reported as log 2 fold change) for auxin treatment vs untreated control. The PRR is the ratio of Pol II occupancy within gene bodies to its occupancy at promoters. A leftward shift of the curve indicates an increase in the frequency and/or duration of promoter-proximal pausing, while a rightward shift indicates reduced pausing and/or more efficient release into gene bodies.
FIGS. 8A-8E. collectively illustrate the differences in Pol II pausing induced by BRD4 depletion and bromodomain inhibition, related to FIG. 1. FIG. 8A illustrates the western blot showing the expression of HA-tagged AtAFB2 and the auxin-induced degradation of V5-tagged BRD4 using anti-tag antibodies. FIG. 8B illustrates the western blot comparing the BRD4 protein expression level and degradation kinetics of the previously published BRD4-AID degron to those of the BRD4-IAA7 degron used in this study 12. Note: in FIGS. 8A and 8B, the BRD4-IAA7 clone used is D4 (Hygromycin selected); it is G3 (Neomycin selected) otherwise in the study. […] FIG. 8E illustrates the track examples of Pol II ChIP-seq signal at the HSPA8 and GAPDH loci upon NVP-2 treatment (2 h) and corresponding heatmaps showing Pol II occupancy profiles and fold change in occupancy vs control upon NVP-2 treatment.
To specifically deplete BRD4 without affecting other BET proteins, we generated an updated BRD4 degron line by modifying the published miniIAA7 degron system (hereafter BRD4-IAA7) to reduce basal degradation seen with AID degron-tagged BRD4^30 (FIGS. 1A and 8A).
DLD1 cells were crosslinked with 15 ml 1% PFA (ThermoFisher, #28908) in PBS on 15 cm plates for 10 minutes at RT and quenched by the addition of 2 ml 2.5M glycine followed by shaking for 5 minutes. Crosslinked cells were collected by scraping. Chromatin sonication was performed for 10 minutes using a Covaris E200 set to 10% duty factor, 200 cycles per burst, and 140 peak intensity power. For endogenous protein ChIP, 10-20% of mouse embryonic fibroblasts (MEF) chromatin (prepared the same way as in DLD1 cells) was added to each sample as a spike-in control. For overexpressed protein ChIP, such as GFP-ChIP, 20 ng spike-in chromatin (Active Motif, #53083) and 2 ug spike-in antibody (Active Motif, #61686) were added to each sample. Immunoprecipitation was carried out at 4° C. overnight using 5ul of Rpb1 (Cell Signaling Technology, #D8L4Y), 5ul of Ser2p (Active Motif, #61984), 10ul of CCNT1 (Cell Signaling Technology, #81464), 10ul of CDK9 (Santa Cruz Biotechnology, #sc-13130 X) antibodies, or 200ul of a cocktail consisting of 50ul of each GFP antibody (DSHB, #GFP-G1, #GFP-12A6, #GFP-12E6, #GFP-8H11). Immune complexes were enriched with Protein G-coupled Dynabeads (Invitrogen, #10004D) at 4° C. for >=4 h, and incubated with proteinase K (Roche, #3115828001) to reverse crosslink at 65° C. overnight. Eluted DNA was purified with the QIAquick PCR Purification Kit (Qiagen, #28106), and libraries were prepared using the KAPA HTP library preparation kit (Roche, #07961901001) for sequencing on the NovaSeq 6000.
Reads were aligned to hg38 with bowtie 1/250. Genes (N=6,481) with pausing site and TES annotation were obtained from a previously published study51. Promoter regions were designated as spanning from 100 bp upstream to 300 bp downstream of the pausing site. Gene body regions were designated as spanning from 300 bp downstream of the pausing site to the TES. FeatureCounts 2.0.152 was used to calculate the total mapped reads from Pol II ChIP-seq at promoters and within gene bodies. […]

Experiment [4] concerns CCNT1. The experiment can be described thus: CCNT1 ChIP-seq with increasing concentrations of JQ1. Type of experiment: cell-based, human. The conditions noted are these: BRD4-IAA7 cells; series concentration of JQ1, 3 h. Here is the method: as §1
Experiment [5] has as its target T1, BRDT (Homo sapiens, UniProt Q58F21).
T1 construct: endogenous in cells; host or cells: NCIH2009
The experiment is described as follows: Western blot of dBET6 treatment in NCIH2009 cells (BRDT). Type of experiment: cell-based. The conditions noted are these: dBET6 3 h. From the text: FLAG antibody (#F1804) was obtained from Millipore Sigma. […] H3 antibody was generated in-house.
On the technique in general: In western blotting, separated proteins are transferred to a membrane and probed.

Each structure is given as a SMILES string.

Take `Cc1sc2c(c1C)C(c1ccc(Cl)cc1)=N[C@@H](CC(=O)OC(C)(C)C)c1nnc(C)n1-2` [JQ1]: in experiment [1], the “Ser2P ChIP-seq signals” value is reported as “minimal”. Moreover, in experiment [2], the “effect on Pol II pausing (RNA-seq, NET-seq)” value is listed as “only a modest effect on Pol II pausing”. For the same molecule, the “effect on pausing at super enhancer-controlled genes such as Myc” value in experiment [3] (MYC locus) is listed as “notable”. Moreover, in experiment [3], the “Pol II pausing (Pol II occupancy profile)” value is “induced little to no pausing” and the “gene-by-gene log 2PRR correlation with auxin treatment” value is recorded as “poorly correlated”. For the same molecule, the “CCNT1 ChIP-seq signals” value in experiment [4] is “decreased dramatically with increasing concentrations”.

Take `Cc1sc2c(c1C)C(c1ccc(Cl)cc1)=N[C@@H](CC(=O)NCCCCCCCCNC(=O)COc1cccc3c1C(=O)N(C1CCC(=O)NC1=O)C3=O)c1nnc(C)n1-2` (some centres unmarked) [dBET6]: in experiment [1], the “Ser2P ChIP-seq signals” value is “Ser2P signal fade away”. The “effect on Pol II pausing (RNA-seq, NET-seq)” value in experiment [2] is reported as “dramatic, genome-wide increase in paused Pol II at promoters”. Besides, in experiment [3], the “Pol II pausing (Pol II occupancy profile)” value is given as “inducing pausing at the majority of Pol II-transcribed genes” and the “gene-by-gene log 2PRR correlation with auxin treatment” value is given as “much stronger”. Moreover, in experiment [5], the “degradation of endogenous BRDT” value was “degraded”.
